Columns and labels:
HeLa spheroids = experiment: HeLa multicellular tumour spheroids; assay type: cell-based, human
Protocol: FIG. 5A) is a series of images of HeLa multicellular tumor spheroids (spheroids) treated with control (500 nM C87), empty nanoparticles, 500 nM C75 and 250 nM C75-loaded nanoparticles over 3 days. […] The scale bar for all images is 100 μm. FIG. 5B) is a series images of HeLa spheroids after three days of treatment with control (500 nM C87) or 500 nM C75. The spheroids were stained for fluorescein diacetate (to detect live cells) and propidium iodide (to detect dead cells). […] The scale bar for all images is 100 μm. FIG. 5C) is a series of images of HCT116 spheroids treated with control (1 μM C87), 500 nM C75, 1 μM C75 and 500 nM C75-loaded nanoparticles over 5 days. […] The borders of the spheroids treated with 1 μM C75 or with 500 nM C75-loaded nanoparticles became highly irregular, indicative of loss of spheroid integrity. FIG. 5D) is a series images of HCT116 spheroids after six days of treatment with control (1 μM C87) or 1 μM C75. The spheroids were stained for fluorescein diacetate (live cells) and propidium iodide (dead cells). […] FIG. 5E) is a line graph showing the growth in surface area (%) of HCT116 spheroids treated with control (1 μM C87), 500 nM C75 and 1 μM C75 after six days. FIG. 5F) is a series of images of A549 spheroids treated with control (750 nM C87), 500 nM C75, 1 μM C75 and 500 nM C75-loaded nanoparticles over 5 days. […] The scale bar for all images is 100 μm. […]

HCT116 (p53-/-) cells = experiment: Mitotic arrest (percentage of cells in mitosis) in HCT116 cells; assay type: cell-based; details: HCT116, within one population doubling time
Protocol: FIG. 2A) is a line graph showing the percentage of HCT116 (p53−/−) cells, A549 cells, HeLa cells and H1299 cells in mitosis after treatment with various concentrations of C75 for one population doubling time. All of the cell lines show an increase in the proportion of mitotic cells after treatment with 200 nM C75. The bars indicate standard deviation. […] While the mitotic spindles were not dramatically altered by C75 in HFF1 cells, they were monopolar (as shown) or fragmented in the other cell types. […] The mitotic spindles were more strongly fragmented after C75 treatment in these cells vs. the cells in FIG. 2B). […] While mitotic spindles recovered bipolarity after removing nocodazole, they remained multipolar after removing C75. FIG. 2F) is a series of time-lapse images of a live HeLa cell expressing GFP:tubulin after treatment with C75 as shown in 2D) and 2E). The scale bar for all cells is 10 μm. FIG. 2G) is a schematic showing the putative target for C75. […]
C75 was also tested for efficacy in different cancer cell lines. […] To further assess the role of C75 in affecting centrosomes, HeLa cells were treated with C75 for a short period of time (5 minutes), then C75 was removed and the cells were analyzed for spindle phenotypes (schematic in FIG. 2D). […]

COc1ccc(S(=O)(=O)N2Cc3ccccc3-c3sc(Br)cc32)cc1 [Compound C75]
effect on HeLa spheroids (HeLa spheroids; 500 nM C75 or 250 nM C75-loaded nanoparticles, over 3 days): disrupt HeLa spheroids | live/dead staining of spheroids (fluorescein diacetate / propidium iodide) (HeLa spheroids; HeLa spheroids, 500 nM, three days): majority of HeLa cells were dead | concentration causing mitotic arrest (HCT116 (p53-/-) cells): 100 to 200 nM

— US11034702B2, “Thienoisoquinolines and their derivatives for the treatment of cancer” (VALORBEC, SOCIÉTÉ EN COMMANDITE, priority 2016, dated 2021)
